Reference: patent publication US9107396B2, “Stabilized synthetic brood pheromone and race-specific ratios of components for manipulating the behavior and physiology of honey bees” (OMS Investments, Inc., priority 2006, dated 2015)

Experiment: Chemical stability of simplified brood pheromone ester blends exposed to air, capillary gas chromatography
Format: physicochemical
Settings: for time for which the component remained intact: with antioxidant stabilizer tertiary-butylhydroquinone; for proportional composition of the total blend at start: two-week test; for percentage composition at start / percentage composition after 72 weeks: unstabilized five-component ethyl ester blend; for percentage composition at start: 72-week test
Experimental: Short-term and long-term stability studies were conducted, with simplified blends of potentially unstable brood pheromone components mixed in approximately the same proportions as in Example 1. Short-term evaluation for a two-week duration was done on blends of methyl oleate, methyl linoleate and methyl linolenate, and ethyl oleate, ethyl linoleate and ethyl linolenate, each with and without tertiary-butylhydroquinone. Twenty-week tests were done with identical blends as for the two-week experiments, but 72-week tests had methyl and ethyl palmitate and stearate added in the appropriate proportions to their respective blends. Approximately 250 mg of a blend was placed in a 4 mL (15×45 mm) plastic vial (Chromatographic Specialties) fitted with a diffusion insert screw cap (Agilent Technologies) with a 1 mm diameter hole to allow air circulation over the sample. All blends were continuously held at a constant temperature of 30° C.
For analysis by capillary gas chromatography, approximately 1 mg of a blend was dissolved in 1 mL of diethyl ether, and a 1 μL aliquot of each extract was analyzed. Analyses were done at time zero and after the given duration of exposure to air at 30° C., using a Hewlett Packard HP5890 gas chromatograph equipped with a flame ionization detector and a 30 m long BPX-70 capillary column (J&W Scientific). The injector and detector temperatures were 260° C. and 285° C., respectively. The temperature program was 80° C. rising at 5° C. per min for 24 min to 200° C., and then rising at 20° C. per min for 3 min to 260° C.
Two-week results are given for methyl and ethyl esters (FIGS. 1 and 2), while long-term 20-week and 72-week results are given for only ethyl esters (FIGS. 3 and 4). Long-term results for methyl esters were virtually identical to those for the ethyl esters.

[1] = unstabilized blend, after two weeks exposure to air
[2] = unstabilized blend, before exposure

| SMILES | decrease in amount of component in the unstabilized blend (2 weeks) [%] | time for which the component remained intact [weeks] | percentage composition at start (before exposure) [%] | percentage composition after 72 weeks [%] | further results |
| --- | --- | --- | --- | --- | --- |
| CCCCCCCC/C=C\CCCCCCCC(=O)OCC [ethyl oleate] |  | 72 | 24 | 10 | proportional composition of the total blend after two weeks [1]: 66%; proportional composition of the total blend at start [2]: 40%; proportion of the total blend at start (unstabilized ethyl ester blend, 20-week test, before exposure): 37%; proportion of the total blend after 20 weeks (unstabilized ethyl ester blend, after 20 weeks): 43% |
| CCCCCCCCCCCCCCCC(=O)OCC [ethyl palmitate] |  |  | 8 | 20 |  |
| CCCCCCCCCCCCCCCCCC(=O)OCC [ethyl stearate] |  |  | 23 | 57 |  |
| CCCCCCCC/C=C\CCCCCCCC(=O)OC [methyl oleate] |  | 72 |  |  | proportional composition of the total blend after two weeks [1]: 82%; proportional composition of the total blend at start [2]: 48% |

Continued, in another order:

| decrease in amount of component in the unstabilized blend (2 weeks) [%] | time for which the component remained intact [weeks] | percentage composition at start (before exposure) [%] | percentage composition after 72 weeks [%] | SMILES | further results |
| --- | --- | --- | --- | --- | --- |
| 74 | 72 |  |  | CCCCC/C=C\C/C=C\CCCCCCCC(=O)OCC [ethyl linoleate] | component remaining in the unstabilized blend after 20 weeks (3360 h): no ethyl linoleate; component remaining in the unstabilized blend after 72 weeks (12096 h): complete breakdown |
|  | 72 |  |  | CC/C=C\C/C=C\C/C=C\CCCCCCCC(=O)OCC [ethyl linolenate] | decrease in amount of component in the unstabilized blend [1]: 94%; component remaining in the unstabilized blend after 20 weeks (unstabilized ethyl ester blend, 20 weeks): no ethyl linolenate remained; component remaining in the unstabilized blend after 72 weeks (unstabilized ethyl ester blend, 72 weeks): complete breakdown |
| 85 | 72 |  |  | CCCCC/C=C\C/C=C\CCCCCCCC(=O)OC [methyl linoleate] |  |
| 90 | 72 |  |  | CC/C=C\C/C=C\C/C=C\CCCCCCCC(=O)OC [methyl linolenate] |  |
